Source: ChEMBL document CHEMBL1158385, “New and selective ryanodine receptor activators for insect control” (Bioorg Med Chem, 2009)
Values after ≈ are worked out from the molar mass of the structure shown.

Columns and labels:
[1] = Octanol-water partition coefficient, log P at 20 degC; assay type: physicochemical
Heliothis virescens = assay: Insecticidal activity against Heliothis virescens larvae; assay type: functional, organism-based
[2] = Solubility in water at 20 degC; assay type: physicochemical
Plutella xylostella = assay: Insecticidal activity against Plutella xylostella larvae; assay type: functional, organism-based
Ryanodine receptor 2 [3] = target: Ryanodine receptor 2 (Rattus norvegicus, UniProt B0LPN4); assay: Activation of ryanodine receptor 2 in rat PC12 cells assessed as induction of calcium mobilization; assay type: cell-based, PC-12
Spodoptera frugiperda = assay: Insecticidal activity against Spodoptera frugiperda larvae; assay type: functional, organism-based
[4] = Activation of ryanodine receptor in Periplaneta americana neurons
C2C12 = assay: Selectivity for Heliothis virescens recombinant ryanodine receptor over ryanodine receptor 1 in mouse C2C12 cells; assay type: cell-based
[5] = Activation of Heliothis virescens recombinant ryanodine receptor
Ryanodine receptor 1 = Ryanodine receptor 1 (Mus musculus, UniProt E9PZQ0); assay: Activation of ryanodine receptor 1 in mouse C2C12 cells assessed as induction of calcium mobilization; assay type: cell-based
PC-12 = assay: Selectivity for Drosophila melanogaster ryanodine receptor over ryanodine receptor 2 in rat PC12 cells; assay type: cell-based
Ryanodine receptor 2 [6] = target: Ryanodine receptor 2 (Homo sapiens, UniProt Q92736); assay: Activation of ryanodine receptor in human IMR32 cells assessed as induction of calcium mobilization; assay type: cell-based, IMR-32
Sequence of Ryanodine receptor 2 (Homo sapiens, UniProt Q92736) (Q92736 whole entry): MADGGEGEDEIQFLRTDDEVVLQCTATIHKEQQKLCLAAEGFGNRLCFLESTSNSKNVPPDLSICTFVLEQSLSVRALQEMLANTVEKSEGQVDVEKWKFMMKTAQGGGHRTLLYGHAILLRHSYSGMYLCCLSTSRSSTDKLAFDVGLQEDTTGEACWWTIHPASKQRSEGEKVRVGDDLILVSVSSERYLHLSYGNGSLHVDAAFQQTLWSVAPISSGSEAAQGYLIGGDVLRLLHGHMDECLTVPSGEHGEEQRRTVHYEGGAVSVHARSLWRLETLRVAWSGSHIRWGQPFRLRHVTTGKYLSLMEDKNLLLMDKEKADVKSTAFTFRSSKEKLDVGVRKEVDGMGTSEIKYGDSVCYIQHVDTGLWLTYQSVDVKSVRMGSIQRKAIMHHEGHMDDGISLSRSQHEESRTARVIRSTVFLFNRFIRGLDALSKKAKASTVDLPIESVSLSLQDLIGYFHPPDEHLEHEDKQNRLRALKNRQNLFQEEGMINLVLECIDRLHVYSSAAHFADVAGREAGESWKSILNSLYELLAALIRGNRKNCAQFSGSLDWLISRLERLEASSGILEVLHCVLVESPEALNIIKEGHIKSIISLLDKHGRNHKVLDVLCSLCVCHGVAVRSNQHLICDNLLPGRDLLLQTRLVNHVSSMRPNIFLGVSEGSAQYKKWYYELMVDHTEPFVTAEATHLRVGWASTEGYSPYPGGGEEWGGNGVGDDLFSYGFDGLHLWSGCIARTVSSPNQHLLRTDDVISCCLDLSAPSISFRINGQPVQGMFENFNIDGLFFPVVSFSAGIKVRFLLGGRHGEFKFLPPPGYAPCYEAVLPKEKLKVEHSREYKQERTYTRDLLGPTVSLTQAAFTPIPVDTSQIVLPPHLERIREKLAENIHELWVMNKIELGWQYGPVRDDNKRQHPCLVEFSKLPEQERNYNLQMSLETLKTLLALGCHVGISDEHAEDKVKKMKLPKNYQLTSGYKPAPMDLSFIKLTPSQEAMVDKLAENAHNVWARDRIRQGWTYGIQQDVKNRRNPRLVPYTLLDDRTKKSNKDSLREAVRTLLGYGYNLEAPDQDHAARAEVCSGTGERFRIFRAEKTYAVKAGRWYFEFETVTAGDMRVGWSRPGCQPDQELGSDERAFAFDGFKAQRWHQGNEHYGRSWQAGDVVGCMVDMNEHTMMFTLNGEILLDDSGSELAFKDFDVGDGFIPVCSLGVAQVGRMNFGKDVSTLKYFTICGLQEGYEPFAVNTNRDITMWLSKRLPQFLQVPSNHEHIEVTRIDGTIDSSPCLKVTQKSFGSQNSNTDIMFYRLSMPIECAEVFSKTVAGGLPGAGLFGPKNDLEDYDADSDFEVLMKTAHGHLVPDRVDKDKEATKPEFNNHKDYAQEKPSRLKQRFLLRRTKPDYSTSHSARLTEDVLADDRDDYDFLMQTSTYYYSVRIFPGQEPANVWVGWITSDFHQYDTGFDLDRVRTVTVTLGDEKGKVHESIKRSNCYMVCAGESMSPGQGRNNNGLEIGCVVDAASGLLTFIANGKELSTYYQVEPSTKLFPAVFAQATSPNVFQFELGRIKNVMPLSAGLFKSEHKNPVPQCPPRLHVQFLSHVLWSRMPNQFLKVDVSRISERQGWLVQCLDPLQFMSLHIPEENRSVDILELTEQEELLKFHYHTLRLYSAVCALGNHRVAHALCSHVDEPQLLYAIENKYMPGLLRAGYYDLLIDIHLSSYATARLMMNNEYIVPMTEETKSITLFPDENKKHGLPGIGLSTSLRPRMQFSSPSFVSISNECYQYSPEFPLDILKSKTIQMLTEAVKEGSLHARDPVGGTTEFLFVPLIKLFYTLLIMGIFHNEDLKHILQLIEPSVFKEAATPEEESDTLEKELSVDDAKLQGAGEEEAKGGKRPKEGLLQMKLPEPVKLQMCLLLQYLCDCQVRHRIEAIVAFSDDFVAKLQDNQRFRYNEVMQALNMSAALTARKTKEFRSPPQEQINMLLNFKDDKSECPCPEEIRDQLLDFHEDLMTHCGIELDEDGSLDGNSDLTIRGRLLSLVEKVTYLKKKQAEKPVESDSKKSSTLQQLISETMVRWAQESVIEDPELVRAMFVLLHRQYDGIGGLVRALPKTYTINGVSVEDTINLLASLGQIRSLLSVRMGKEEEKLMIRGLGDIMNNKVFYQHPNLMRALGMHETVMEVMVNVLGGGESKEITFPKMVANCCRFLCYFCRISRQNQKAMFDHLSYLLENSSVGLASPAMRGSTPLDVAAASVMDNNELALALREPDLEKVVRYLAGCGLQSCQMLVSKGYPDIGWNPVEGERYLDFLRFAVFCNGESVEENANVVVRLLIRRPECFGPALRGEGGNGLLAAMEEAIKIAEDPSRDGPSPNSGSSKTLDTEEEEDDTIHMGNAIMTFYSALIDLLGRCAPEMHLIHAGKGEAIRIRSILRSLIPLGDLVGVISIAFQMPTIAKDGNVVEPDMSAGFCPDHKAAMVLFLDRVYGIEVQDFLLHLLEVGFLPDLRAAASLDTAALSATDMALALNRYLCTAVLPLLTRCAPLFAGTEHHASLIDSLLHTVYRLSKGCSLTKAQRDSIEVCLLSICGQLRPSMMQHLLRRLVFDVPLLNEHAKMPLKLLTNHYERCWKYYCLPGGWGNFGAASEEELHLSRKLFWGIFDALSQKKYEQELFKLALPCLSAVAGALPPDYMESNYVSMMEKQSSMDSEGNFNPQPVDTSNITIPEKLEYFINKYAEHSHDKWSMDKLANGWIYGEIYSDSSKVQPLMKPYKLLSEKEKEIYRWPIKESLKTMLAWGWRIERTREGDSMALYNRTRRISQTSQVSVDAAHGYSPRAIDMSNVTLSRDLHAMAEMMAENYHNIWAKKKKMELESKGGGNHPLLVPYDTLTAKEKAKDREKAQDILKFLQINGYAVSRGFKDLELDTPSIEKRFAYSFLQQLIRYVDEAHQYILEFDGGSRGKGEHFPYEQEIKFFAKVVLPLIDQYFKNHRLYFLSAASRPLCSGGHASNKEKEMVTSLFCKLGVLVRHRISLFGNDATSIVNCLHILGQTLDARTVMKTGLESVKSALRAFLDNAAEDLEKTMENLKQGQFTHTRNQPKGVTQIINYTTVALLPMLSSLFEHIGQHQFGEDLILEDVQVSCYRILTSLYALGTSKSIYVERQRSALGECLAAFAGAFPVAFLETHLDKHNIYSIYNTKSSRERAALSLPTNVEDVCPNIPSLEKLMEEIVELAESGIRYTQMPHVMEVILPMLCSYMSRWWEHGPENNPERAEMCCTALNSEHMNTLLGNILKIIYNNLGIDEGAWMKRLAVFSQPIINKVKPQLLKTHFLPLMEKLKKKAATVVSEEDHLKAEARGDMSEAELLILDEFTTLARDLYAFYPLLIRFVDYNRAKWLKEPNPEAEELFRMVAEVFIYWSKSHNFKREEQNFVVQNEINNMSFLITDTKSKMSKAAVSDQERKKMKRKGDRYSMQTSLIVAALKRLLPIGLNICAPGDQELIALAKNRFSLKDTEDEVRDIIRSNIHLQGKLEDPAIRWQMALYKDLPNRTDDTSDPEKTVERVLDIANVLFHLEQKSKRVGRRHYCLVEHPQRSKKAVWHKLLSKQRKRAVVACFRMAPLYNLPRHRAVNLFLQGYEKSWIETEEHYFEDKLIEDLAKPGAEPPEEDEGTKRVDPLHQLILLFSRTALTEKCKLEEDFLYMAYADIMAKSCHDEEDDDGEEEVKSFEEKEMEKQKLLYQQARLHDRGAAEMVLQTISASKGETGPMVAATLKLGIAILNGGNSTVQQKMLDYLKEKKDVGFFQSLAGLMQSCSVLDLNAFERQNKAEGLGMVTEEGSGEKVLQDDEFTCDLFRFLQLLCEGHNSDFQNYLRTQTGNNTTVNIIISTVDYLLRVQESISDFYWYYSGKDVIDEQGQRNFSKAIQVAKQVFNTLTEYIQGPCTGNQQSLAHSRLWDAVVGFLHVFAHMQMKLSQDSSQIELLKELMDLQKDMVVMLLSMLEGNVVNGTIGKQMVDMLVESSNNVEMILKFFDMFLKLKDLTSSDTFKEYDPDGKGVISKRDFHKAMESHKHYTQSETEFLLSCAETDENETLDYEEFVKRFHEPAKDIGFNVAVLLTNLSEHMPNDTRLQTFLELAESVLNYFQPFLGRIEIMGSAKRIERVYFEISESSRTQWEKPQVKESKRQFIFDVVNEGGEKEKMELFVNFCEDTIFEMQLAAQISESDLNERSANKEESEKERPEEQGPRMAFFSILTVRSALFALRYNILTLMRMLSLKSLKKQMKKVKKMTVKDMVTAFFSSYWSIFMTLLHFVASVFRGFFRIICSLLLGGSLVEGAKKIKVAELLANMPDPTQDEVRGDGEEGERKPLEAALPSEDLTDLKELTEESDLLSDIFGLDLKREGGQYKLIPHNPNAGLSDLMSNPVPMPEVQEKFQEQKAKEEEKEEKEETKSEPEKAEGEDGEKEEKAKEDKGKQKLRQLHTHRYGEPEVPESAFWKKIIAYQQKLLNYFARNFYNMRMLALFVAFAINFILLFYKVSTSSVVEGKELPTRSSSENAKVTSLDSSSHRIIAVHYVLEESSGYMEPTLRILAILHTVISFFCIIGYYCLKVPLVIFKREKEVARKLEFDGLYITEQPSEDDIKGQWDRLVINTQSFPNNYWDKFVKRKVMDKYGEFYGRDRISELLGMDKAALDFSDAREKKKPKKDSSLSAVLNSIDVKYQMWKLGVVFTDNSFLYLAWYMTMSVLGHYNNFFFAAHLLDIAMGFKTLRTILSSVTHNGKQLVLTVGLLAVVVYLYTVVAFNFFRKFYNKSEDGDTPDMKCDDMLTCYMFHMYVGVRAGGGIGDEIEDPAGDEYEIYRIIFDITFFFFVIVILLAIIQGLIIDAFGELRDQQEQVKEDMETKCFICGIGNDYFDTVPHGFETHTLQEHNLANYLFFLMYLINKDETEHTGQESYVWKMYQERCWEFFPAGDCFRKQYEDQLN

physchem = settings: octanol/water
Description: Octanol-water partition coefficient, log P at 24.9 degC

[7] = Activation of ryanodine receptor-mediated calcium release in Heliothis virescens neurons

Row | Structure (SMILES) | logP [1] | EC50 (Heliothis virescens) | solubility [2] | EC50 (Plutella xylostella) | EC50 (Ryanodine receptor 2 [3]) | EC50 (Spodoptera frugiperda) | EC50 [4] | Selectivity ratio (C2C12) | EC50 [5] | EC50 (Ryanodine receptor 1) | Selectivity ratio (PC-12) | EC50 (Ryanodine receptor 2 [6]) | logP (physchem) | EC50 [7]
1 | CNC(=O)c1cc(Cl)cc(C)c1NC(=O)c1cc(Br)nn1-c1ncccc1Cl [CHLORANTRANILIPROLE] | 2.86 | 0.05 ppm | 1 µg/mL (≈ 2.07 µM) | 0.01 ppm | > 100000 nM | 0.02 ppm | 40 nM | > 2000 | 40 nM | 14000 nM | 300 | > 100000 nM |  | 
2 | Cc1cc(C(F)(C(F)(F)F)C(F)(F)F)ccc1NC(=O)c1cccc(I)c1C(=O)NC(C)(C)CS(C)(=O)=O [FLUBENDIAMIDE] |  |  | 0.03 µg/mL (≈ 0.044 µM) |  |  |  |  |  |  |  |  |  | 4.2 | 690 nM
